Source: BigSolDB 2.1

C(=Cc1ccc(-c2nc3ccccc3o2)cc1)c1ccc(-c2nc3ccccc3o2)cc1
solubility (mole fraction) (in DMF, 323.15 K): 3.02e-06
solubility (mole fraction) (in DMF, 338.15 K): 7.12e-06
solubility (mole fraction) (in DMF, 353.15 K): 1.04e-05
solubility (mole fraction) (in DMF, 368.15 K): 1.57e-05
solubility (mole fraction) (in DMF, 383.15 K): 2.63e-05
solubility (mole fraction) (in NMP, 323.15 K): 3.18e-06
solubility (mole fraction) (in NMP, 338.15 K): 7.96e-06
solubility (mole fraction) (in NMP, 353.15 K): 1.37e-05
solubility (mole fraction) (in NMP, 368.15 K): 2.44e-05
solubility (mole fraction) (in NMP, 383.15 K): 3.99e-05
solubility (mole fraction) (in chlorobenzene, 323.15 K): 8.89e-06
solubility (mole fraction) (in chlorobenzene, 338.15 K): 2.1e-05
solubility (mole fraction) (in chlorobenzene, 353.15 K): 3.65e-05
solubility (mole fraction) (in chlorobenzene, 368.15 K): 4.9e-05
solubility (mole fraction) (in chlorobenzene, 383.15 K): 5.59e-05
solubility (mole fraction) (in water, 323.15 K): 1.3e-07
solubility (mole fraction) (in water, 338.15 K): 3.39e-07
solubility (mole fraction) (in water, 353.15 K): 5.56e-07
solubility (mole fraction) (in water, 368.15 K): 6.6e-07
